Test results published in patent publication US20080226596A1, “Therapeutic compositions and methods useful in treating hepatitis” (priority 2006, published 2008).

Experiments:
MKP1 = target: T1, MKP1 (Homo sapiens, UniProt P28562); assay: In vitro PTPase assay, GST/MKP1; assay type: biochemical
T1 construct: GST (N); made in house; host or cells: DH5a bacteria
T1 sequence (P28562 1-367): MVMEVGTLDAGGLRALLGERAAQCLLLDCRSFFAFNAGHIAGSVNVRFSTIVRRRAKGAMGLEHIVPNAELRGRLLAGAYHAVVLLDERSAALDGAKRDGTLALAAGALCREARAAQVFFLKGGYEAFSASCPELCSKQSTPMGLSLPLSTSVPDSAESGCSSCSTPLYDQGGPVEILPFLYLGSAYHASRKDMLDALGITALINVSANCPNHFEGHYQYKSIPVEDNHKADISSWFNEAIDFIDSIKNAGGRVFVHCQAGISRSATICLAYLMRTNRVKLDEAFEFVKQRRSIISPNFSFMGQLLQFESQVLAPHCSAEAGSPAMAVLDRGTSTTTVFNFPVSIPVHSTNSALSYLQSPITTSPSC
Procedure: In vitro PTPase activities were measured using the commercial protein tyrosine phosphatase assay kit (Upstate Biotechnology, Inc. (“UBI”)) following established procedure known to one of skill in the art. This assay measures the in vitro dephosphorylation of a synthetic phosphotyrosine peptide of the sequence Arg-Arg-Leu-Ile-Glu-Asp-Ala-Gle-Tyr-Ala-Ala-Arg-Gly, wherein the tyrosine is phosphorylated (SEQ ID NO: 3). Briefly, 0.01 µg of GST/PTPase fusion proteins was incubated in 50 μL of Tris buffer (10 mM Tris, pH 7.4) containing different concentrations of inhibitors or chemicals (0-1,000 μg/ml) at 22° C. for 10 minutes, followed by addition of 0.2 mM of the phosphotyrosine peptide and incubation at 22° C. for 18 hours. 100 μL of Malachite Green solution was added and incubated for 5 minutes, and the absorbance at 660 nm was measured after 5 minutes.
In vitro PTPase assays were used to determine the effects of levamisole (Sigma), pentamidine (American Pharmaceutical Partners, Inc.), and ketoconazole (Sigma) on recombinant PTPases, following established procedures (Pathak et al., J. Imumol. 167, 3391 (2001); Pathak et al., Leukemia 16, 2285 (2002), Yi et al., J. Immunol. 169, 5978 (2002)) using a synthetic phosphotyrosine peptide or DiFMUP as the substrate as detailed above in section I.A.2.

WM9 cells = assay: WM9 melanoma cell growth, MTT assay; assay type: cell-based, human
Procedure: For cell proliferation assays, cells were grown in 10% FCS culture medium containing various amounts of IFNs and/or sodium stibogluconate in 96 well plates and cultured at 37° C. for 3 or 6 days as indicated. The numbers of viable cells in proliferation assays were determined by MTT assays as described in Phatak et al., J. Immunol. 167, 3391 (2001).
Dose response curves were generated for each drug alone, and also the combinations. Median effect plots were generated for IFNs alone, sodium stibogluconate alone, and the combination. The combination index (CI) was determined and plotted vs. fraction affected (FA). Data were analyzed in both modes, mutually exclusive and mutually nonexclusive. The interaction between two mutually nonexclusive drugs is described by the Equation CI=D1/Dx1+D2/Dx2+D1D2/Dx1Dx2, where Dx1 and Dx2 are the doses of drug 1 and drug 2 that are required to inhibit growth x %. […] When CI<1, drugs are synergistic, when CI=1, drugs are additive, and when CI>1, drugs are antagonistic.
Renca (Murphy, G. P., and W. J. Hrushesky. 1973. A murine renal cell carcinoma. J Natl Cancer Inst 50:1013), Jurkat (Gillis, S., and J. Watson. 1980. Biochemical and biological characterization of lymphocyte regulatory molecules. V. Identification of an interleukin 2-producing human leukemia T cell line. J Exp Med 152:1709) and WM9 (Forsberg, K., I. Valyi-Nagy, C. H. Heldin, M. Herlyn, and B. Westermark. 1993. Platelet-derived growth factor (PDGF) in oncogenesis: development of a vascular connective tissue stroma in xenotransplanted human melanoma producing PDGF-BB. Proc Natl Acad Sci USA 90:393) cell lines were obtained from a colleague at the Cleveland Clinic Foundation (CCF) and cultured in RPMI 1640 medium supplemented with 10% fetal calf serum (FCS). […] SSG has been described previously (Yi, T., M. K. Pathak, D. J. Lindner, M. E. Ketterer, C. Farver, and E. C. Borden. 2002. Anticancer activity of sodium stibogluconate in synergy with IFNs. J Immunol 169:5978).
NIH3T3 (Yi, et al., Blood 85, 87 (1995)), WM9 (Forsberg, et al., Proc. Nat. Acad Sci. USA 90, 393 (1993)), DU145 (Mickey, et al., Cancer Res. 37, 4049 (1977)), LoVo (Drewinko, et al., Cancer Res. 36, 467 (1976)), HEY (Buick, et al., Cancer Res. 45, 3668 (1985)), U251 (Yoshida, et al., Cancer 50, 410 (1982)), A549 (Giard, et al., J. Natl. Cancer Inst. 51, 1417 (1973)) and SK-N-SH (Helson, et al., Cancer Res. 35, 2594 (1975)) cell lines have been described and were cultured in RPMI 1640 supplemented with 10% fetal calf serum (FCS). For measurement of sodium stibogluconate effects on cell growth in vitro, cells were cultured in the absence (−) or presence (+) of various amounts of sodium stibogluconate for 6 days with viable cells quantified by MTT assays (Mosmann, J. Immunol. Methods 65, 55 (1983)). Percentages of growth inhibition by sodium stibogluconate were calculated (.+−.x

Compound | inhibition of MKP1 (MKP1) | effect on IFN-alpha activity against WM9 (WM9 cells; ketoconazole 40 μg/ml) | activity against WM9 cells (WM9 cells; ketoconazole 0.625-20 μg/ml, single agent or with IFN-alpha) | IFN-alpha-induced growth inhibition of WM9 with pentamidine (WM9 cells; most obviously at 0.625-1.25 μg/ml) | inhibitory activity against MKP1 (MKP1) | WM9 cell growth (WM9 cells; SSG, 6 days, comparable conditions to Renca) | killing of WM9 cells (WM9 cells; single agent, 50 and 100 μg/ml, day 6)
CC(=O)N1CCN(c2ccc(OCC3COC(Cn4ccnc4)(c4ccc(Cl)cc4Cl)O3)cc2)CC1 (stereo not drawn) [ketoconazole] | substantial inhibition | minor augmenting effect on IFN-alpha activity | no apparent activity |  |  |  | 
N=C(N)c1ccc(OCCCCCOc2ccc(C(=N)N)cc2)cc1 [pentamidine] | substantial inhibition |  |  | augmented IFN-alpha-induced growth inhibition |  |  | 
O.O.O.O.O.O.O.O.O.O=C([O-])[C@@H]1[O][Sb]2([O-])([O][Sb]34([OH])[O][C@H]([C@H](O)CO)[C@H]([O]3)[C@H](C(=O)[O-])[O]4)[O][C@H]([C@H](O)CO)[C@@H]1[O]2.[Na+].[Na+].[Na+] [sodium stibogluconate] | no obvious effects |  |  |  | no obvious inhibitory activity | inhibited by SSG in a dose-dependent manner | killed all cells
